The source of these data is patent US20120220562A1, “Anti-Viral Compounds” (ABBOTT LABAORATORIES, priority 2011, published 2012).

The test relates to HCV 1b-Con1 replicon. In words: HCV 1b-Con1 replicon assay in the presence of 5% FBS. Type of test: cell-based. The following applies: Hepatitis C virus.
For the molecule `CCC1(COc2c(F)cc(N3[C@@H](c4ccc5nc([C@@H]6CCCN6C(=O)[C@@H](NC(=O)OC)C(C)C)[nH]c5c4)CC[C@@H]3c3ccc4nc([C@@H]5CCCN5C(=O)[C@@H](NC(=O)OC)C(C)C)[nH]c4c3)cc2F)COC1` [Example 2.5, methyl {(2S)-1-[(2S)-2-{6-[(2R,5R)-1-{4-[(3-ethyloxetan-3-yl)methoxy]-3,5-difluorophenyl}-5-{2-[(2S)-1-{(2S)-2-[(methoxycarbonyl)amino]-3-methylbutanoyl}pyrrolidin-2-yl]-1H-benzimidazol-6-yl}pyrrolidin-2-yl]-1H-benzimidazol-2-yl}pyrrolidin-1-yl]-3-methyl-1-oxobutan-2-yl}carbamate], the half-maximal effective concentration (EC50) was under 0.1 nM.

Take `COC(=O)N[C@H](C(=O)N1C[C@@H](OC)C[C@H]1c1nc2cc([C@H]3CC[C@H](c4ccc5[nH]c([C@@H]6C[C@H](OC)CN6C(=O)[C@@H](NC(=O)OC)C(C)C)nc5c4)N3c3cc(F)c(N4CCCCC4)c(F)c3)ccc2[nH]1)C(C)C` [Example 3.7, methyl {(2S)-1-[(2S,4S)-2-{5-[(2R,5R)-1-[3,5-difluoro-4-(piperidin-1-yl)phenyl]-5-{2-[(2S,4S)-4-methoxy-1-{(2S)-2-[(methoxycarbonyl)amino]-3-methylbutanoyl}pyrrolidin-2-yl]-1H-benzimidazol-5-yl}pyrrolidin-2-yl]-1H-benzimidazol-2-yl}-4-methoxypyrrolidin-1-yl]-3-methyl-1-oxobutan-2-yl}carbamate]: the EC50 is under 0.1 nM. Regarding `COC(=O)N[C@H](C(=O)N1CCC[C@H]1c1nc2cc([C@H]3CC[C@H](c4ccc5[nH]c([C@@H]6CCCN6C(=O)[C@@H](NC(=O)OC)C(C)C)nc5c4)N3c3cc(F)c(N4Cc5ccccc5C4)c(F)c3)ccc2[nH]1)C(C)C` [Example 5.13, methyl {(2S)-1-[(2S)-2-{5-[(2R,5R)-1-[4-(1,3-dihydro-2H-isoindol-2-yl)-3,5-difluorophenyl]-5-{2-[(2S)-1-{(2S)-2-[(methoxycarbonyl)amino]-3-methylbutanoyl}pyrrolidin-2-yl]-1H-benzimidazol-5-yl}pyrrolidin-2-yl]-1H-benzimidazol-2-yl}pyrrolidin-1-yl]-3-methyl-1-oxobutan-2-yl}carbamate], the EC50 is under 0.1 nM. Turning to `COC(=O)N[C@H](C(=O)N1CCC[C@H]1c1nc2cc([C@H]3CC[C@H](c4cc5nc([C@@H]6CCCN6C(=O)[C@@H](NC(=O)OC)C(C)C)[nH]c5cc4F)N3c3cc(F)c(N4CCN(c5ncccn5)CC4)c(F)c3)c(F)cc2[nH]1)C(C)C` [Example 4.60, methyl {(2S)-1-[(2S)-2-{5-[(2R,5R)-1-{3,5-difluoro-4-[4-(pyrimidin-2-yl)piperazin-1-yl]phenyl}-5-{6-fluoro-2-[(2S)-1-{(2S)-2-[(methoxycarbonyl)amino]-3-methylbutanoyl}pyrrolidin-2-yl]-1H-benzimidazol-5-yl}pyrrolidin-2-yl]-6-fluoro-1H-benzimidazol-2-yl}pyrrolidin-1-yl]-3-methyl-1-oxobutan-2-yl}carbamate], the EC50 was under 0.1 nM. Then `COC(=O)N[C@H](C(=O)N1CCC[C@H]1c1nc2c(Cl)c([C@H]3CC[C@@H](c4ccc5[nH]c([C@@H]6CCCN6C(=O)[C@@H](NC(=O)OC)C(C)C)nc5c4Cl)N3c3ccc(C(C)(C)C)cc3)ccc2[nH]1)C(C)C` [Example 6.6, methyl {(2S)-1-[(2S)-2-{5-[(2R,5S)-1-(4-tert-butylphenyl)-5-{4-chloro-2-[(2S)-1-{(2S)-2-[(methoxycarbonyl)amino]-3-methylbutanoyl}pyrrolidin-2-yl]-1H-benzimidazol-5-yl}pyrrolidin-2-yl]-4-chloro-1H-benzimidazol-2-yl}pyrrolidin-1-yl]-3-methyl-1-oxobutan-2-yl}carbamate], with under 0.1 nM; and `COC(=O)N[C@H](C(=O)N1CCC[C@H]1c1nc2c(C)c([C@H]3CC[C@H](c4ccc5[nH]c([C@@H]6CCCN6C(=O)[C@@H](NC(=O)OC)C(C)C)nc5c4C)N3c3ccc(C(C)(C)C)cc3)ccc2[nH]1)C(C)C` [Example 6.7, methyl {(2S)-1-[(2S)-2-{5-[(2R,5R)-1-(4-tert-butylphenyl)-5-{2-[(2S)-1-{(2S)-2-[(methoxycarbonyl)amino]-3-methylbutanoyl}pyrrolidin-2-yl]-4-methyl-1H-benzimidazol-5-yl}pyrrolidin-2-yl]-4-methyl-1H-benzimidazol-2-yl}pyrrolidin-1-yl]-3-methyl-1-oxobutan-2-yl}carbamate], with under 0.1 nM; and `COC(=O)N[C@H](C(=O)N1CCC[C@H]1c1nc2ccc([C@H]3CC[C@H](c4ccc5nc([C@@H]6CCCN6C(=O)[C@@H](NC(=O)OC)C(C)C)[nH]c5c4)N3c3cc(F)c(N4CCC(c5ccc(OC)cc5)CC4)c(F)c3)cc2[nH]1)C(C)C` [Example 4.34, methyl {(2S)-1-[(2S)-2-{6-[(2R,5R)-1-{3,5-difluoro-4-[4-(4-methoxyphenyl)piperidin-1-yl]phenyl}-5-{2-[(2S)-1-{(2S)-2-[(methoxycarbonyl)amino]-3-methylbutanoyl}pyrrolidin-2-yl]-1H-benzimidazol-6-yl}pyrrolidin-2-yl]-1H-benzimidazol-2-yl}pyrrolidin-1-yl]-3-methyl-1-oxobutan-2-yl}carbamate], with under 0.1 nM. Then `COC(=O)N[C@H](C(=O)N1CCC[C@H]1c1nc2c(F)c([C@H]3CC[C@@H](c4ccc5nc([C@@H]6CCCN6C(=O)[C@@H](NC(=O)OC)C(C)C)[nH]c5c4F)N3c3ccc(C(C)(C)C)cc3)ccc2[nH]1)C(C)C` [Example 6.4, methyl {(2S)-1-[(2S)-2-{5-[(2R,5S)-1-(4-tert-butylphenyl)-5-{7-fluoro-2-[(2S)-1-{(2S)-2-[(methoxycarbonyl)amino]-3-methylbutanoyl}pyrrolidin-2-yl]-1H-benzimidazol-6-yl}pyrrolidin-2-yl]-4-fluoro-1H-benzimidazol-2-yl}pyrrolidin-1-yl]-3-methyl-1-oxobutan-2-yl}carbamate], with under 0.1 nM; and `COC(=O)N[C@H](C(=O)N1CCC[C@H]1c1nc2cc([C@@H]3CC[C@@H](c4cc5nc([C@@H]6CCCN6C(=O)[C@@H](NC(=O)OC)C(C)C)[nH]c5cc4F)N3c3cc(F)c(N4CCN(c5c(F)cccc5F)CC4)c(F)c3)c(F)cc2[nH]1)C(C)C` [Example 3.50, methyl {(2S)-1-[(2S)-2-{5-[(2S,5S)-1-{4-[4-(2,6-difluorophenyl)piperazin-1-yl]-3,5-difluorophenyl}-5-{6-fluoro-2-[(2S)-1-{(2S)-2-[(methoxycarbonyl)amino]-3-methylbutanoyl}pyrrolidin-2-yl]-1H-benzimidazol-5-yl}pyrrolidin-2-yl]-6-fluoro-1H-benzimidazol-2-yl}pyrrolidin-1-yl]-3-methyl-1-oxobutan-2-yl}carbamate], with under 0.1 nM. For `COC(=O)N[C@H](C(=O)N1CCC[C@H]1c1nc2cc([C@H]3CC[C@H](c4ccc5[nH]c([C@@H]6CCCN6C(=O)[C@@H](NC(=O)OC)C(C)C)nc5c4)N3c3ccc(N4CCCCC4)c(C)c3)ccc2[nH]1)C(C)C` [Example 4.2, methyl {(2S)-1-[(2S)-2-(5-{(2R,5R)-5-{2-[(2S)-1-{(2S)-2-[(methoxycarbonyl)amino]-3-methylbutanoyl}pyrrolidin-2-yl]-1H-benzimidazol-5-yl}-1-[3-methyl-4-(piperidin-1-yl)phenyl]pyrrolidin-2-yl}-1H-benzimidazol-2-yl)pyrrolidin-1-yl]-3-methyl-1-oxobutan-2-yl}carbamate] the value was under 0.1 nM; for `COC(=O)N[C@H](C(=O)N1CCC[C@H]1c1nc2cc([C@H]3CC[C@H](c4ccc5[nH]c([C@@H]6CCCN6C(=O)[C@@H](NC(=O)OC)C(C)C)nc5c4)N3c3cc(F)c(N4CCC(c5ccccc5)(c5ccccc5)CC4)c(F)c3)ccc2[nH]1)C(C)C` [Example 5.2, methyl {(2S)-1-[(2S)-2-{5-[(2R,5R)-1-[4-(4,4-diphenylpiperidin-1-yl)-3,5-difluorophenyl]-5-{2-[(2S)-1-{(2S)-2-[(methoxycarbonyl)amino]-3-methylbutanoyl}pyrrolidin-2-yl]-1H-benzimidazol-5-yl}pyrrolidin-2-yl]-1H-benzimidazol-2-yl}pyrrolidin-1-yl]-3-methyl-1-oxobutan-2-yl}carbamate], under 0.1 nM. With `COC(=O)N[C@H](C(=O)N1CCC[C@H]1c1nc2cc([C@H]3CC[C@H](c4cc5nc([C@@H]6CCCN6C(=O)[C@@H](NC(=O)OC)[C@@H](C)OC)[nH]c5cc4F)N3c3cc(F)c(N4CCC(C(C)(C)C)CC4)c(F)c3)c(F)cc2[nH]1)[C@@H](C)OC` [Example 6.13, methyl {(2S,3R)-1-[(2S)-2-{5-[(2R,5R)-1-[4-(4-tert-butylpiperidin-1-yl)-3,5-difluorophenyl]-5-(6-fluoro-2-{(2S)-1-[N-(methoxycarbonyl)-O-methyl-L-threonyl]pyrrolidin-2-yl}-1H-benzimidazol-5-yl)pyrrolidin-2-yl]-6-fluoro-1H-benzimidazol-2-yl}pyrrolidin-1-yl]-3-methoxy-1-oxobutan-2-yl}carbamate], the 50% effective concentration (EC50) was under 0.1 nM. `COC(=O)N[C@H](C(=O)N1CCC[C@H]1c1nc2cc([C@H]3CC[C@H](c4cc5nc([C@@H]6CCCN6C(=O)[C@@H](NC(=O)OC)C(C)C)[nH]c5cc4F)N3c3cc(F)c(N4CCC(C(C)(C)C)CC4)c(F)c3)c(F)cc2[nH]1)C(C)C` [Example 4.27, methyl {(2S)-1-[(2S)-2-{5-[(2R,5R)-1-[4-(4-tert-butylpiperidin-1-yl)-3,5-difluorophenyl]-5-{6-fluoro-2-[(2S)-1-{(2S)-2-[(methoxycarbonyl)amino]-3-methylbutanoyl}pyrrolidin-2-yl]-1H-benzimidazol-5-yl}pyrrolidin-2-yl]-6-fluoro-1H-benzimidazol-2-yl}pyrrolidin-1-yl]-3-methyl-1-oxobutan-2-yl}carbamate]: the EC50 is under 0.1 nM. For `COC(=O)N[C@H](C(=O)N1CCC[C@H]1c1nc2cc([C@H]3CC[C@H](c4ccc5[nH]c([C@@H]6CCCN6C(=O)[C@@H](NC(=O)OC)C(C)C)nc5c4)N3c3cc(F)c(N4CCC(F)(F)CC4)c(F)c3)ccc2[nH]1)C(C)C` [Example 1.5, methyl {(2S)-1-[(2S)-2-{5-[(2R,5R)-1-[4-(4,4-difluoropiperidin-1-yl)-3,5-difluorophenyl]-5-{2-[(2S)-1-{(2S)-2-[(methoxycarbonyl)amino]-3-methylbutanoyl}pyrrolidin-2-yl]-1H-benzimidazol-5-yl}pyrrolidin-2-yl]-1H-benzimidazol-2-yl}pyrrolidin-1-yl]-3-methyl-1-oxobutan-2-yl}carbamate] the value was under 0.1 nM.
